Measurements as given in patent publication US8895558B2, “Arylpiperazine-containing pyrrole 3-carboxamide derivatives for treating depressive disorders” (Green Cross Corporation, priority 2008, dated 2014).
Where a name gives a salt, the structure may show the parent alone.

Legend:
[1] = target: T1, human recombinant 5-HT2C receptor (Homo sapiens, UniProt P28335); assay: Binding affinity for serotonin 5-HT2C receptor ([3H]Mesulergine); conditions: CHO-K1 membranes, 1.3 nM [3H]Mesulergine
T1 construct: purchased PerkinElmer
T1 sequence (P28335 33-458): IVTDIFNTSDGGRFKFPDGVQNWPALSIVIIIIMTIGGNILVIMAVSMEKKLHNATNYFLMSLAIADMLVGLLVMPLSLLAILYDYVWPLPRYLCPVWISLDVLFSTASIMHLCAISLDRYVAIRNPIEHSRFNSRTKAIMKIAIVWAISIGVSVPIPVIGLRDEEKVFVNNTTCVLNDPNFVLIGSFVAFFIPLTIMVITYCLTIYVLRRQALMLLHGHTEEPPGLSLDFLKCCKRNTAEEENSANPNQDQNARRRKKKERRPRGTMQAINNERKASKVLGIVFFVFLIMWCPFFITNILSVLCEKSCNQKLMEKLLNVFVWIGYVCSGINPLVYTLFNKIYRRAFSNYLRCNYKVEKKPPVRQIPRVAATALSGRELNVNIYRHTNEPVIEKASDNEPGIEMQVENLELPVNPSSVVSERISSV
Method in brief: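 Competition binding with [3H]mesulergine; nonspecific binding defined with 100 uM mianserin. Incubation 60 min at 27, stopped by rapid filtration onto glass fiber filters presoaked in 0.5% PEI.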

[2] = target: T2, human recombinant serotonin 5-HT2A receptor (Homo sapiens, UniProt P28223); assay: Binding affinity for serotonin 5-HT2A receptor ([3H]Ketanserin); conditions: CHO-K1 expressed receptor, 1 nM [3H]Ketanserin
T2 construct: purchased PerkinElmer Life and Analytical Sciences, USA; host or cells: CHO-K1
T2 sequence (P28223 whole entry): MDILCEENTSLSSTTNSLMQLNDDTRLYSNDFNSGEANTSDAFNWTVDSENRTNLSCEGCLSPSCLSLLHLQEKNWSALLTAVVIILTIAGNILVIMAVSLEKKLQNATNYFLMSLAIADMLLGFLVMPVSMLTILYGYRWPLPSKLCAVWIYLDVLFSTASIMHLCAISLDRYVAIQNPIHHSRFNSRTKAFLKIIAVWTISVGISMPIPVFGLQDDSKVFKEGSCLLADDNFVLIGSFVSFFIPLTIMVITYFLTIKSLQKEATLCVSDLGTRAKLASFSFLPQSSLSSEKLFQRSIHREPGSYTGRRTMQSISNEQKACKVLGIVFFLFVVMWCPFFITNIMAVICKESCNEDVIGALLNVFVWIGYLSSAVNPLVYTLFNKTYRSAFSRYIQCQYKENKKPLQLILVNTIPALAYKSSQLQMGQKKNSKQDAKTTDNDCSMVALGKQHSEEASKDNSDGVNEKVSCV
Method in brief: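 Membranes from CHO-K1 cells expressing recombinant receptor (5 ug/well) incubated 60 min at 27 with 1 nM [3H]ketanserin in 50 mM Tris-HCl pH 7.4, 4 mM CaCl2, 0.1% ascorbic acid; mianserin 20 uM defined nonspecific binding. Filtration and counting; IC50 by nonlinear regression over 7-8 concentrations in duplicate.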

[3] = target: T3, human serotonin transporter (Homo sapiens, UniProt P31645); assay: Binding affinity for serotonin transporter ([3H]Imipramine); conditions: HEK-293 membranes, 2 nM [3H]Imipramine
T3 construct: purchased PerkinElmer; host or cells: HEK-293
T3 sequence (P31645 whole entry): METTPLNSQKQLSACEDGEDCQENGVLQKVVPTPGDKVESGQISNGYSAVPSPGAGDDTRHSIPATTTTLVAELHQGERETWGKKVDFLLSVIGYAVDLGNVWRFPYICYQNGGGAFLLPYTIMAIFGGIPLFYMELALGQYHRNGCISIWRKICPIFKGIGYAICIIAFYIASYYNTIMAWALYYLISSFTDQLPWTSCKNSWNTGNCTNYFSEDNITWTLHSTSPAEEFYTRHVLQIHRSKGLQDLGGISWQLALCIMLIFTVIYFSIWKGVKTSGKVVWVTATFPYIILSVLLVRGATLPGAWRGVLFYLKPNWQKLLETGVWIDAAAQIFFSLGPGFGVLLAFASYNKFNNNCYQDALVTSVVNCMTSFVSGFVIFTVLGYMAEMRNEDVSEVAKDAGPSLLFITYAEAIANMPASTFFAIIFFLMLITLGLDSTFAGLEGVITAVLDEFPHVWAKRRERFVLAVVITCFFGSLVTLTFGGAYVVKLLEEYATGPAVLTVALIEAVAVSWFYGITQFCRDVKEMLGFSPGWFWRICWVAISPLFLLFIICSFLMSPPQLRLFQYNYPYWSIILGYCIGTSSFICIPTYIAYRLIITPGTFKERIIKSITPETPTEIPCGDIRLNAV
Method in brief: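 Membranes from HEK-293 cells expressing human serotonin transporter (5 ug/well) incubated with compound and 2 nM [3H]imipramine in 50 mM Tris-HCl pH 7.4, 120 mM NaCl, 5 mM KCl, 30 min at 27. Bound ligand separated by filtration onto glass fiber filters presoaked in 0.5% PEI, washed with ice-cold Tris-HCl/0.9% NaCl.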

SMILES	IC50 [1] [nM]	IC50 [2] [nM]	IC50 [3] [nM]
CCCn1c(-c2ccccc2)cc(C(=O)NCCCN2CCN(c3ccccc3OC)CC2)c1C [Example 84, N-(3-(4-(2-Methoxyphenyl)piperazin-1-yl)propyl)-2-methyl-5-phenyl-1-propyl-1H-pyrrole-3-carboxamide]	1410	953	1080
CCCn1c(-c2ccccc2)cc(C(=O)NCCCN2CCN(c3ccc(OC)cc3)CC2)c1C [Example 87, N-(3-(4-(4-methoxyphenyl)piperazin-1-yl)propyl)-2-methyl-5-phenyl-1-propyl-1H-pyrrole-3-carboxamide dihydrochloride]	4830	647	628
CCCCCCn1c(-c2ccccc2)cc(C(=O)NCCCN2CCN(c3cccc(Cl)c3Cl)CC2)c1C [Example 72, N-(3-(4-(2,3-dichlorophenyl)piperazin-1-yl)propyl)-1-hexyl-2-methyl-5-phenyl-1H-pyrrole-3-carboxamide hydrochloride]	68	300	1190
Cc1cccc(N2CCN(CCCNC(=O)c3cc(-c4ccccc4)n(Cc4ccccc4)c3C)CC2)c1C [Example 18, 1-Benzyl-N-(3-(4-(2,3-dimethylphenyl)piperazin-1-yl)propyl)-2-methyl-5-phenyl-1H-pyrrole-3-carboxamide]	297	224	14.3
Cc1[nH]c(-c2ccccc2)cc1C(=O)NCCCN1CCN(c2cccc(Cl)c2Cl)CC1 [Example 25, N-(3-(4-(2,3-dichlorophenyl)piperazin-1-yl)propyl)-2-methyl-5-phenyl-1H-pyrrole-3-carboxamide]	599	300	133
Cc1cc(C(=O)NCCCN2CCN(c3cccc(Cl)c3Cl)CC2)c(C)n1-c1ccccc1 [Example 170, N-(3-(4-(2,3-dichlorophenyl)piperazin-1-yl)propyl)-2,5-dimethyl-1-phenyl-1H-pyrrole-3-carboxamide]	98	132	20
Cc1c(C(=O)NCCCN2CCN(c3cccc(Cl)c3)CC2)cc(-c2ccccc2)n1C [Example 1, N-(3-(4-(3-chlorophenyl)piperazin-1-yl)propyl)-1,2-dimethyl-5-phenyl-1H-pyrrole-3-carboxamide]	160	92	11.1
CCCn1c(-c2ccc(Cl)cc2)cc(C(=O)NCCCN2CCN(c3cccc(C)c3C)CC2)c1C [Example 65, 5-(4-chlorophenyl)-N-(3-(4-(2,3-dimethylphenyl)piperazin-1-yl)propyl)-2-methyl-1-propyl-1H-pyrrole-3-carboxamide hydrochloride]	26	192	131
Cc1c(C(=O)NCCCN2CCN(c3ccc(F)cc3)CC2)cc(-c2ccccc2)n1C [Example 155, N-(3-(4-(4-Fluorophenyl)piperazin-1-yl)propyl)-1,2-dimethyl-5-phenyl-1H-pyrrole-3-carboxamide]	493	22	183
Cc1[nH]c(-c2ccccc2)c(C)c1C(=O)NCCN1CCN(c2cccc(Cl)c2Cl)CC1 [Example 76, N-(2-(4-(2,3-dichlorophenyl)piperazin-1-yl)ethyl)-2,4-dimethyl-5-phenyl-1H-pyrrole-3-carboxamide hydrochloride]	13	37	162
Cc1[nH]c(-c2ccc(Cl)cc2)cc1C(=O)NCCCCN1CCN(c2cccc(Cl)c2Cl)CC1 [Example 47, 5-(4-chlorophenyl)-N-(4-(4-(2,3-dichlorophenyl)piperazin-1-yl)butyl)-2-methyl-1H-pyrrole-3-carboxamide hydrochloride]	62	56	122
Cc1c(C(=O)NCCCN2CCN(c3cccc(Cl)c3Cl)CC2)cc(-c2ccccc2)n1Cc1ccccc1 [Example 19, 1-Benzyl-N-(3-(4-(2,3-dichlorophenyl)piperazin-1-yl)propyl)-2-methyl-5-phenyl-1H-pyrrole-3-carboxamide]	220	354	125
CCCn1c(-c2ccc(Cl)cc2)cc(C(=O)NCCCN2CCN(c3cccc(Cl)c3Cl)CC2)c1C [Example 66, 5-(4-chlorophenyl)-N-(3-(4-(2,3-dichlorophenyl)piperazin-1-yl)propyl)-2-methyl-1-propyl-1H-pyrrole-3-carboxamide hydrochloride]	41	333	1160
CCn1c(-c2ccccc2)cc(C(=O)NCCCCN2CCN(c3cccc(C)c3C)CC2)c1C [Example 42, N-(4-(4-(2,3-dimethylphenyl)piperazin-1-yl)butyl)-1-ethyl-2-methyl-5-phenyl-1H-pyrrole-3-carboxamide hydrochloride]	17	10	65
CCCn1c(-c2ccccc2)cc(C(=O)NCCN2CCN(c3cccc(Cl)c3Cl)CC2)c1C [Example 39, N-(2-(4-(2,3-dichlorophenyl)piperazin-1-yl)ethyl)-2-methyl-5-phenyl-1-propyl-1H-pyrrole-3-carboxamide hydrochloride]	310	408	32
Cc1c(Cl)cccc1N1CCN(CCCNC(=O)c2cc(C)n(-c3ccccc3)c2C)CC1 [Example 176, N-(3-(4-(3-chloro-2-methylphenyl)piperazin-1-yl)propyl)-2,5-dimethyl-1-phenyl-1H-pyrrole-3-carboxamide]	127	170	15
Cc1cccc(N2CCN(CCCCNC(=O)c3cc(-c4ccccc4)n(C)c3C)CC2)c1C [Example 35, N-(4-(4-(2,3-dimethylphenyl)piperazin-1-yl)butyl)-1,2-dimethyl-5-phenyl-1H-pyrrole-3-carboxamide hydrochloride]	61	61	149
CCCn1c(-c2ccccc2)cc(C(=O)NCCCN2CCN(c3ccccc3C#N)CC2)c1C [Example 90, N-(3-(4-(2-cyanophenyl)piperazin-1-yl)propyl)-2-methyl-5-phenyl-1-propyl-1H-pyrrole-3-carboxamide hydrochloride]	637	269	223
COc1cccc(N2CCN(CCCNC(=O)c3cc(-c4ccccc4)n(C)c3C)CC2)c1OC [Example 158, N-(3-(4-(2,3-dimethoxyphenyl)piperazin-1-yl)propyl)-1,2-dimethyl-5-phenyl-1H-pyrrole-3-carboxamide]	782	666	1260
CCCn1c(-c2ccncc2)cc(C(=O)NCCCN2CCN(c3cccc(Cl)c3Cl)CC2)c1C [Example 107, N-(3-(4-(2,3-dichlorophenyl)piperazin-1-yl)propyl)-2-methyl-1-propyl-5-(pyridin-4-yl)-1H-pyrrole-3-carboxamide]	420	34	78
CCCn1c(-c2cccc(OC)c2)cc(C(=O)NCCCN2CCN(c3cccc(Cl)c3Cl)CC2)c1C [Example 82, N-(3-(4-(2,3-dichlorophenyl)piperazin-1-yl)propyl)-5-(3-methoxyphenyl)-2-methyl-1-propyl-1H-pyrrole-3-carboxamide hydrochloride]	43	138	196
Cc1[nH]c(-c2ccccn2)cc1C(=O)NCCCN1CCN(c2cccc(Cl)c2Cl)CC1 [Example 91, N-(3-(4-(2,3-dichlorophenyl)piperazin-1-yl)propyl)-2-methyl-5-(pyridin-2-yl)-1H-pyrrole-3-carboxamide dihydrochloride]	211	21	28
CCn1c(-c2ccccc2)cc(C(=O)NCCCN2CCN(c3cccc(Cl)c3)CC2)c1C [Example 4, N-(3-(4-(3-chlorophenyl)piperazin-1-yl)propyl)-1-ethyl-2-methyl-5-phenyl-1H-pyrrole-3-carboxamide]	192	92	25.8
Cc1[nH]c(-c2ccccc2)cc1C(=O)NCCN1CCN(c2cccc(Cl)c2Cl)CC1 [Example 38, N-(2-(4-(2,3-dichlorophenyl)piperazin-1-yl)ethyl)-2-methyl-5-phenyl-1H-pyrrole-3-carboxamide hydrochloride]	37	40	87
Cc1c(C(=O)NCCCN2CCN(c3cccc(Cl)c3Cl)CC2)cc(-c2cccnc2)n1C [Example 100, N-(3-(4-(2,3-dichlorophenyl)piperazin-1-yl)propyl)-1,2-dimethyl-5-(pyridin-3-yl)-1H-pyrrole-3-carboxamide]	209	49	92
